Measurements reported in patent publication US10301664B2, “Repurposing non-antimicrobial drugs and clinical molecules to treat bacterial infections” (Purdue Research Foundation, priority 2015, dated 2019).
In brackets after ≈: the same amount, converted by molar mass. Like-named read-outs stand apart in the source and are kept apart here.

How the values were obtained:
MRSA USA300 = assay: Library hits: MIC/MBC against MRSA; format: cell-based, Staphylococcus aureus; conditions: Staphylococcus aureus
[1] = tested on: E. fecalis ATCC 51229 (VRE); assay: MIC and MBC against E. fecalis VRE (CLSI); format: cell-based; conditions: Enterococcus
Experimental: The NIH Clinical Collections 1 and 2 (http://www.nihclinicalcollection.com) containing 727 FDA approved drugs and small molecules previously used in human clinical trials with known safety profiles were screened against ESKAPE pathogens. The library was initially screened at a single concentration of 16 μM to identify “hit” non-antibacterial drugs. Once the antimicrobial activity of the drugs was confirmed, we determined their MICs and minimum bactericidal concentrations (MBCs) according to the Clinical and Laboratory Standards Institute (CLSI).

MRSA USA200 = format: in vivo, BALB/c mice; conditions: EB 30 mg/kg or FdUrd 25 mg/kg once daily for three days, monitored six days
Experimental: Animal procedures were approved by the Purdue University Animal Care and Use Committee (PACUC) (protocol no. 1311000988). Eight-week-old female BALB/c mice (Harlan Laboratories, Indianapolis, Ind.) were used for this study. Mice were rendered neutropenic by treatment with cyclophosphamide intraperitoneally (IP) 150 and 100 mg/kg at four days and one day before infection, respectively. Neutropenic mice were inoculated IP with 8×10^8 MRSA USA200. At one hour after infection, the mice were divided into five groups (n=10 per group), and two groups were treated orally with either EB 30 mg/kg or FdUrd 25 mg/kg. Two groups were treated IP with either EB 30 mg/kg or FdUrd 25 mg/kg. One group was used as a control with no treatment. Treatment was continued once daily for two more days (animals received three doses total). Mortality was monitored four times daily for six days, and the cumulative percent survival was determined. The data were subjected to statistical analysis using Kaplan-Meier survival curves. A log rank test was performed for 95% confidence intervals by GraphPad Prism 6.0 (GraphPad Software, La Jolla, Calif.).

[2] = tested on: clinical isolates of S. aureus; assay: MIC90 over clinical isolates of S. aureus; format: cell-based; conditions: Staphylococcus aureus, Table 1, read-out: MIC90 (MIC at which 90% of clinical isolates of S. aureus were inhibited)
[3] = tested on: Methicillin-sensitive S. aureus (MSSA); assay: MIC and MBC against methicillin-sensitive S. aureus isolates (CLSI); format: cell-based; conditions: Staphylococcus aureus; for MBC: read-out: MBC; for MIC: read-out: MIC
[4] = tested on: vancomycin resistant E. faecium ATCC 700221 (VRE); assay: Library hits: MIC/MBC against VRE; format: cell-based; conditions: VRE
P. aeruginosa ATCC 15442 = assay: Library hits: MIC against P. aeruginosa; format: cell-based
[5] = tested on: Vancomycin-resistant S. aureus (VRSA); assay: MIC and MBC against vancomycin-resistant S. aureus clinical isolates (CLSI); format: cell-based; conditions: Staphylococcus aureus, VRSA; for MBC: read-out: MBC; for MIC: read-out: MIC
[6] = tested on: Methicillin resistant S. aureus (MRSA); assay: MIC and MBC against methicillin resistant S. aureus clinical isolates (CLSI); format: cell-based; conditions: Staphylococcus aureus; for MBC: read-out: MBC; for MIC: read-out: MIC
[7] = tested on: Vancomycin-intermediate S. aureus (VISA); assay: MIC and MBC against vancomycin-intermediate S. aureus isolates (CLSI); format: cell-based; conditions: Staphylococcus aureus; for MBC: read-out: MBC; for MIC: read-out: MIC
[8] = tested on: A. baumannii ATCC BAA-1605; assay: Library hits: MIC against A. baumannii; format: cell-based
S. epidermidis NRS 101 = assay: MIC and MBC against S. epidermidis (CLSI); format: cell-based; conditions: Staphylococcus epidermidis, NRS101
[9] = tested on: E. faecium ATCC 700221 (VRE); assay: MIC and MBC against E. faecium VRE (CLSI), Table 1; format: cell-based; conditions: Enterococcus faecium
[10] = MRSA / NRS 119, NRS119 (resistant to linezolid)

O=c1[nH]c(=O)n([C@H]2C[C@H](O)[C@@H](CO)O2)cc1F [FdUrd, 5-fluoro-2′-deoxyuridine]
MBC (MRSA USA300; read-out: MBC): 0.5 µM (≈ 0.123 µg/mL)
MIC (MRSA USA300; read-out: MIC): < 0.5 µM
MBC [1]: 125 ng/mL (≈ 508 nM)
MIC [1]: 125 ng/mL (≈ 508 nM)
mice survival compared to that of control (MRSA USA200; IP): 100%
mice survival compared to that of control (MRSA USA200; oral): 60%
MIC90 [2]: 3.9 ng/mL (≈ 15.8 nM)
MBC ([3]; MSSA / NRS 72): 1.95 ng/mL (≈ 7.92 nM)
MIC ([3]; MSSA / NRS 72): 0.975 ng/mL (≈ 3.96 nM)
MBC ([3]; MSSA / NRS 77): 0.49 ng/mL (≈ 1.99 nM)
MIC ([3]; MSSA / NRS 77): 0.49 ng/mL (≈ 1.99 nM)
MBC ([3]; MSSA / NRS 846): 3.9 ng/mL (≈ 15.8 nM)
MIC ([3]; MSSA / NRS 846): 3.9 ng/mL (≈ 15.8 nM)
MBC ([3]; MSSA / NRS 860): 1.95 ng/mL (≈ 7.92 nM)
MIC ([3]; MSSA / NRS 860): 1.95 ng/mL (≈ 7.92 nM)
MBC [4]: 0.5 µM (≈ 0.123 µg/mL)
MIC ([4]; read-out: MIC): < 0.5 µM
MIC/MBC (P. aeruginosa ATCC 15442): >16 µM
MBC ([5]; VRSA1): 7.8 ng/mL (≈ 31.7 nM)
MIC ([5]; VRSA1): 7.8 ng/mL (≈ 31.7 nM)
MBC ([5]; VRSA2): 15.6 ng/mL (≈ 63.4 nM)
MIC ([5]; VRSA2): 3.9 ng/mL (≈ 15.8 nM)
MBC ([5]; VRSA3a): 0.975 ng/mL (≈ 3.96 nM)
MIC ([5]; VRSA3a): 0.975 ng/mL (≈ 3.96 nM)
MBC ([5]; VRSA3b): 0.49 ng/mL (≈ 1.99 nM)
MIC ([5]; VRSA3b): 0.49 ng/mL (≈ 1.99 nM)
MBC ([5]; VRSA4): 3.9 ng/mL (≈ 15.8 nM)
MIC ([5]; VRSA4): 1.95 ng/mL (≈ 7.92 nM)
MBC ([5]; VRSA5): 1.95 ng/mL (≈ 7.92 nM)
MIC ([5]; VRSA5): 1.95 ng/mL (≈ 7.92 nM)
MBC ([5]; VRSA6): 1.95 ng/mL (≈ 7.92 nM)
MIC ([5]; VRSA6): 0.49 ng/mL (≈ 1.99 nM)
MBC ([5]; VRSA7): 3.9 ng/mL (≈ 15.8 nM)
MIC ([5]; VRSA7): 1.95 ng/mL (≈ 7.92 nM)
MBC ([5]; VRSA8): 0.975 ng/mL (≈ 3.96 nM)
MIC ([5]; VRSA8): 0.49 ng/mL (≈ 1.99 nM)
MBC ([5]; VRSA9): 1.95 ng/mL (≈ 7.92 nM)
MIC ([5]; VRSA9): 0.975 ng/mL (≈ 3.96 nM)
MBC ([5]; VRSA10): 0.975 ng/mL (≈ 3.96 nM)
MIC ([5]; VRSA10): 0.975 ng/mL (≈ 3.96 nM)
MBC ([5]; VRSA11a): 15.6 ng/mL (≈ 63.4 nM)
MIC ([5]; VRSA11a): 0.975 ng/mL (≈ 3.96 nM)
MBC ([5]; VRSA11b): 3.9 ng/mL (≈ 15.8 nM)
MIC ([5]; VRSA11b): 0.975 ng/mL (≈ 3.96 nM)
MBC ([5]; VRSA12): 3.9 ng/mL (≈ 15.8 nM)
MIC ([5]; VRSA12): 1.95 ng/mL (≈ 7.92 nM)
MBC ([5]; VRSA13): 15.6 ng/mL (≈ 63.4 nM)
MIC ([5]; VRSA13): 1.95 ng/mL (≈ 7.92 nM)
MBC ([6]; MRSA / NRS 70): 3.15 ng/mL (≈ 12.8 nM)
MIC ([6]; MRSA / NRS 70): 3.9 ng/mL (≈ 15.8 nM)
MBC ([6]; MRSA / NRS 71): 1.95 ng/mL (≈ 7.92 nM)
MIC ([6]; MRSA / NRS 71): 1.95 ng/mL (≈ 7.92 nM)
MBC ([6]; MRSA / NRS 100): 0.975 ng/mL (≈ 3.96 nM)
MIC ([6]; MRSA / NRS 100): 0.975 ng/mL (≈ 3.96 nM)
MBC ([6]; MRSA / NRS 108): 15.6 ng/mL (≈ 63.4 nM)
MIC ([6]; MRSA / NRS 108): 7.8 ng/mL (≈ 31.7 nM)
MBC [6, 10]: 15.6 ng/mL (≈ 63.4 nM)
MIC [6, 10]: 3.9 ng/mL (≈ 15.8 nM)
MBC ([6]; MRSA / NRS 123): 3.9 ng/mL (≈ 15.8 nM)
MIC ([6]; MRSA / NRS 123): 0.975 ng/mL (≈ 3.96 nM)
MBC ([6]; MRSA / NRS 194): 62.5 ng/mL (≈ 254 nM)
MIC ([6]; MRSA / NRS 194): 3.9 ng/mL (≈ 15.8 nM)
MBC ([6]; MRSA / NRS 382): 7.8 ng/mL (≈ 31.7 nM)
MIC ([6]; MRSA / NRS 382): 0.975 ng/mL (≈ 3.96 nM)
MBC ([6]; MRSA / NRS 383): 7.8 ng/mL (≈ 31.7 nM)
MIC ([6]; MRSA / NRS 383): 7.8 ng/mL (≈ 31.7 nM)
MBC ([6]; MRSA / NRS 384, NRS 384): 1.95 ng/mL (≈ 7.92 nM)
MIC ([6]; MRSA / NRS 384, NRS 384): 1.95 ng/mL (≈ 7.92 nM)
MBC ([6]; MRSA / NRS 385, NRS 385): 31.5 ng/mL (≈ 128 nM)
MIC ([6]; MRSA / NRS 385, NRS 385): 31.5 ng/mL (≈ 128 nM)
MBC ([6]; MRSA / NRS 386, NRS 386): 7.8 ng/mL (≈ 31.7 nM)
MIC ([6]; MRSA / NRS 386, NRS 386): 1.95 ng/mL (≈ 7.92 nM)
MBC ([6]; MRSA / NRS 387, NRS 387): 15.6 ng/mL (≈ 63.4 nM)
MIC ([6]; MRSA / NRS 387, NRS 387): 3.9 ng/mL (≈ 15.8 nM)
MBC ([6]; MRSA / NRS 483, NRS 483): 7.8 ng/mL (≈ 31.7 nM)
MIC ([6]; MRSA / NRS 483, NRS 483): 1.95 ng/mL (≈ 7.92 nM)
MBC ([6]; MRSA / NRS 484, NRS 484): 3.9 ng/mL (≈ 15.8 nM)
MIC ([6]; MRSA / NRS 484, NRS 484): 0.975 ng/mL (≈ 3.96 nM)
MBC ([7]; NRS 1 / VISA, NRS 1): 1.95 ng/mL (≈ 7.92 nM)
MIC ([7]; NRS 1 / VISA, NRS 1): 1.95 ng/mL (≈ 7.92 nM)
MBC ([7]; NRS 19 / VISA): 1.95 ng/mL (≈ 7.92 nM)
MIC ([7]; NRS 19 / VISA): 0.49 ng/mL (≈ 1.99 nM)
MBC ([7]; NRS 37 / VISA): 7.8 ng/mL (≈ 31.7 nM)
MIC ([7]; NRS 37 / VISA): 1.95 ng/mL (≈ 7.92 nM)
MIC/MBC [8]: >16 µM
MBC (S. epidermidis NRS 101): 7.8 ng/mL (≈ 31.7 nM)
MIC (S. epidermidis NRS 101): 7.8 ng/mL (≈ 31.7 nM)
MBC [9]: 125 ng/mL (≈ 508 nM)
MIC [9]: 62.5 ng/mL (≈ 254 nM)
